In ChEMBL document CHEMBL3779816, “Microwave-assisted regioselective direct CH arylation of thiazole derivatives leading to increased 1receptor affinity” (Medchemcomm, 2016):

Key:
[1] = Displacement of [3H]di-o-tolylguanidine from sigma 2 receptor in rat liver membranes after 120 mins by liquid scintillation spectrometry in presence of (+)-pentazocine; type: cell membranes, Membrane
[2] = molecular target: Sigma non-opioid intracellular receptor 1 (Cavia porcellus, UniProt Q60492); test: Displacement of [3H](+)-pentazocine from sigma 1 receptor in guinea pig brain membranes after 150 mins by liquid scintillation spectrometry; type: cell membranes, Membrane
Rattus norvegicus = species: Rattus norvegicus; test: Displacement of [3H]di-o-tolylguanidine from sigma 2 receptor in rat liver membranes at 1 uM after 120 mins by liquid scintillation spectrometry in presence of (+)-pentazocine; type: cell membranes; settings: Membrane

Sigma non-opioid intracellular receptor 1, sequence (Q60492 whole entry): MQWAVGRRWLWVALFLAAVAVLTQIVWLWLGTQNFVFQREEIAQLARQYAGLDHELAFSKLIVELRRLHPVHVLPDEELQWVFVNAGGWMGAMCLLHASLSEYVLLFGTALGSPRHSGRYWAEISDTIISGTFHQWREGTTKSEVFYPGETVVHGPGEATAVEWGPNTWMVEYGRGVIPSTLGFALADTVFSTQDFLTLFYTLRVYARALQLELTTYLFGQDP

| Structure (SMILES) | Ki [1] | Ki [2] | inhibition (Rattus norvegicus) |
| --- | --- | --- | --- |
| Cc1ccc(-c2cnc(C3(O)CCN(Cc4ccccc4)CC3)s2)cc1 | 457 nM | 7 nM | – |
| OC1(c2nccs2)CCN(Cc2ccccc2)CC1 | 1800 nM | 33 nM | – |
| COC1Cc2c(-c3ccc(C)cc3)csc2C2(CCN(Cc3ccccc3)CC2)O1 (stereo unspecified) | – | – | 34% |
| COC1Cc2ccsc2C2(CCN(Cc3ccccc3)CC2)O1 (stereo unspecified) | – | – | 16% |
| O=C(CCCN1CCC(O)(c2ccc(Cl)cc2)CC1)c1ccc(F)cc1 [HALOPERIDOL] | 22 nM | – | – |
| COC1Cc2cc(-c3ccc(C)cc3)sc2C2(CCN(Cc3ccccc3)CC2)O1 (stereo unspecified) | – | – | 44% |
| Cc1ccccc1NC(=N)Nc1ccccc1C [DITOLYLGUANIDINE] | 107 nM | – | – |
| Cc1ccc(-c2csc(C3(O)CCN(Cc4ccccc4)CC3)n2)cc1 | 154 nM | 3.8 nM | – |
